In data set [1] the test system is adult male Wistar rats. Kind of data set: Intravenous cocaine self-administration under a multiple, alternating schedule of food reinforcement and cocaine self-administration. In kind it is in vivo, rat. The following applies: for cocaine self-administration and reinstatement of extinguished cocaine seeking: pretreatment with the single drug, summary of the studies.
Method: Adult male Wistar rats were trained under a multiple, alternating schedule of cocaine and food self-administration. This schedule consisted of alternating periods of cocaine access and food reinforcement. In some instances, as described further below, three doses of cocaine (0.125, 0.25, or 0.50 mg/kg/infusion) were tested. Rats were also periodically trained with saline substitution (cocaine extinction) and food extinction during the same session.
More specifically, adult male Wistar rats were implanted with chronic jugular catheters. Following recovery from surgery, the rats were trained to respond under a multiple, alternating schedule of food reinforcement and cocaine self-administration. Food-maintained responding was used to control for the non-specific motor effects of the various treatments. During the food component of the schedule, the stimulus light located above the food response lever was illuminated to indicate the availability of food reinforcement. […] A 25-second timeout followed the delivery of each food pellet. During this timeout, the stimulus light was darkened and responses on the food lever were counted but had no scheduled consequences. Responding on the other (cocaine) lever during the food component also had no scheduled consequences. […] Following 15 minutes of access to food, all stimulus lights in the chamber were darkened for a 1-minute timeout. Following the timeout, the stimulus light above the cocaine response lever was illuminated to indicate the availability of cocaine (0.125, 0.25, or 0.5 mg/kg/infusion). […] A 20-second timeout period followed each infusion. […] After 15 minutes of access to cocaine and a 1-minute timeout, the rats were again allowed 15 minutes access to the food component of the schedule. Access to food and cocaine alternated in this manner every 15 minutes during the two hour behavioral sessions so that each rat was exposed to food and cocaine for four 15-minute periods each. Each behavioral session began with 15 minutes access to either food or cocaine, and this alternated daily. Stable baselines of responding were established when the total number of cocaine and food presentations, as well as the number of presentations during each of the four exposures each session, varied less than 10% for three consecutive sessions. At least three different doses of cocaine (e.g., 0.125, 0.25, and 0.5 mg/kg/infusion) were tested. Rats were first trained to self-administer 0.25 mg/kg/infusion, which was the standard dose of cocaine used. When responding stabilized, the dose was changed to 0.125 or 0.5 mg/kg/infusion as appropriate.
Once stable baselines of responding were obtained, dose-response curves for the various compounds were individually generated for each rat. Rats were treated with each dose at least twice with a minimum of two days of baseline cocaine self-administration interspersed between each test. Each group of rats was tested with only two of the test compounds to minimize potential carryover effects.

The test system of another data set is rats. The settings on record: Goeders et al., cited from earlier work.
Data set [2] has as its system adult male Wistar rats. Kind of data set: Cue-induced reinstatement of extinguished cocaine seeking (model of relapse). It counts as in vivo, rat. The settings on record: FIG. 11; chronic metyrapone 50 mg/kg ip, once per day for 14 days. Here is the method: Training to self-administer cocaine: In one model, rats were exposed to alternating 15-minute periods of access to cocaine self-administration and food reinforcement. Food was used to control for potential nonspecific, ataxis effects of the drugs and combinations. […] In this model, rats are trained to self-administer cocaine and the ability of conditioned cues in the environment to reinstate extinguished responding is assessed and taken as a measure of relapse.
Cue-induced Reinstatement of Extinguished Cocaine Seeking: The experiments described herein were designed to investigate whether or not drug combinations identified as effective in reducing cocaine self-administration would also block the ability of conditioned cues to reinstate extinguished cocaine-seeking behavior. Adult male Wistar rats were implanted with chronic jugular catheters and trained to self-administer cocaine (0.25 mg/kg/infusion) by pressing one of the response levers in the experimental chamber (i.e., the “active” or “cocaine” lever) under a fixed-ratio four (FR4) schedule of reinforcement during daily 2-hour sessions conducted 5 days per week. At the start of each session, both levers were extended into the chamber and the stimulus light above the active lever was illuminated to indicate the availability of cocaine. […] A 20-second timeout period followed each infusion. […]

A short description of data set [3]: Phase I single- and multiple-rising dose study: plasma pharmacokinetics. The settings on record: human, in vivo. Here is the method: METHODS: This was a single- and multiple-rising dose study. Healthy volunteers who smoke, aged 18-65, received a single AM dose on Day 1, BID dosing on Days 3-9 and a single AM dose on Day 10. Three sequential dose cohorts of 8 subjects (6 drug, 2 placebo) received the following doses of MET and OX, respectively: 270 and 12 mg; 540 and 24 mg; and 720 and 24 mg. Total daily doses were double these amounts on BID dosing days. Primary outcomes were safety and pharmacokinetics of MET, its active metabolite (metyrapol), and OX. Safety measures included vital signs, ECGs an standard safety labs. Cortisol and other HPA axis parameters were monitored closely throughout the study.

The test system of another data set is male Wistar rats. Nature of the data set: Forced Swim Test (FST), animal model of depression.
Setting [4] is: FIG. 8, high dose alone: muscimol 1-4 mg/kg ip, CP-154,526 10-80 mg/kg ip.
[5] abbreviates: FIG. 8, low, ineffective doses alone: muscimol 0.5-2.0 mg/kg ip, CP-154,526 5-25 mg/kg ip.
The mark [6] stands for this setting: FIG. 9, high dose alone: muscimol 1-4 mg/kg ip, metyrapone 25-175 mg/kg ip.
Setting [7] is: FIG. 3, low, ineffective doses alone: alprazolam 0.2-2 mg/kg ip, ketoconazole 5-75 mg/kg ip.
[8] abbreviates: FIG. 7, high dose alone: metyrapone 25-175 mg/kg ip, alprazolam 1-5 mg/kg ip.
Where [9] appears, read: FIG. 7, low, ineffective doses alone: metyrapone 25-50 mg/kg ip, alprazolam 0.5-2 mg/kg ip.

As for `CCCCN(CC)c1nc(C)nc2c1c(C)cn2-c1c(C)cc(C)cc1C` [CP-154,526], the “cocaine self-administration (infusions, percentage of baseline)” value is reported as “reduced cocaine self-administration” with adult male Wistar rats [1] (FIG. 6, high dose alone: CP-154,526 10-80 mg/kg ip, oxazepam 5-25 mg/kg ip); “did not significantly affect cocaine self-administration” in the data set on adult male Wistar rats [1] (FIG. 6, low, ineffective doses alone: CP-154,526 5-25 mg/kg ip, oxazepam 5-25 mg/kg ip); “reduced cocaine self-administration” in the data set with adult male Wistar rats [1] (setting [4]); “did not significantly affect cocaine self-administration” with adult male Wistar rats [1] (setting [5]). The “cocaine self-administration and reinstatement of extinguished cocaine seeking” value with adult male Wistar rats [1] (rats) was “decrease cocaine self-administration and the reinstatement of extinguished cocaine seeking”.
Turning to `NCc1cc(=O)[nH]o1` [muscimol], the “cocaine self-administration (infusions, percentage of baseline)” value is listed as “reduced cocaine self-administration” in the data set with adult male Wistar rats [1] (setting [4]), “did not significantly affect cocaine self-administration” with adult male Wistar rats [1] (setting [5]) and “reduced cocaine self-administration” in the data set on adult male Wistar rats [1] (setting [6]).
Turning to `CC(=O)N1CCN(c2ccc(OCC3COC(Cn4ccnc4)(c4ccc(Cl)cc4Cl)O3)cc2)CC1` (stereo not drawn) [ketoconazole], in the data set on adult male Wistar rats [1] (setting [7]), the “cocaine self-administration (number of cocaine infusions)” value is given as “did not significantly affect cocaine self-administration”. Besides, the “cocaine- or food-maintained responding” value with adult male Wistar rats [1] (ketoconazole 12.5 mg/kg tested alone) is “no effect”. Also, the “cocaine self-administration (number of cocaine infusions)” value with adult male Wistar rats [1] (rat, in vivo) is “did not significantly affect cocaine self-administration”. Moreover, in the data set with adult male Wistar rats [1] (rats), the “minimally effective dose (reduces cocaine self-administration by at least 50% without affecting food-maintained responding)” value is on record as 25 mg/kg; the “cocaine self-administration and reinstatement of extinguished cocaine seeking” value was “decrease cocaine self-administration and the reinstatement of extinguished cocaine seeking”. The intravenous cocaine self-administration result in the data set with rats (pretreatment) was “reduced cocaine self-administration”.
Turning to `Cc1nnc2n1-c1ccc(Cl)cc1C(c1ccccc1)=NC2` [alprazolam], the “cocaine self-administration (number of cocaine infusions)” value is “did not significantly affect cocaine self-administration” in the data set on adult male Wistar rats [1] (setting [7]), “reduced cocaine self-administration” in the data set with adult male Wistar rats [1] (setting [8]) and “did not significantly affect cocaine self-administration” in the data set with adult male Wistar rats [1] (setting [9]). Further, the “cocaine self-administration and reinstatement of extinguished cocaine seeking” value with adult male Wistar rats [1] (rats) was “decrease cocaine self-administration and the reinstatement of extinguished cocaine seeking”. The “responding maintained by food and cocaine” value in the data set with rats (multiple schedule of iv cocaine and food reinforcement, initial testing, 1993) is “reduced responding maintained by both food and cocaine”.
For the molecule `CC(C)(C(=O)c1cccnc1)c1cccnc1` [metyrapone], the “cocaine self-administration (number of cocaine infusions)” value with adult male Wistar rats [1] (FIG. 1A, high dose alone: metyrapone 25-175 mg/kg ip, oxazepam 5-80 mg/kg ip) is “reduced cocaine self-administration”; with adult male Wistar rats [1] (setting [8]) it was “reduced cocaine self-administration”; with adult male Wistar rats [1] (setting [9]) it was “did not significantly affect cocaine self-administration”. For the same molecule, the “cocaine self-administration (infusions, percentage of baseline)” value in the data set with adult male Wistar rats [1] (setting [6]) is listed as “reduced cocaine self-administration”. Besides, the “cocaine self-administration and reinstatement of extinguished cocaine seeking” value in the data set with adult male Wistar rats [1] (rats) was “decrease cocaine self-administration and the reinstatement of extinguished cocaine seeking”. Further, the “cocaine seeking (responding on the active lever during reinstatement)” value with adult male Wistar rats [2] is recorded as “reduced cocaine seeking to levels seen when only saline was delivered”. Besides, the “t1/2, mean” value in data set [3] is 1.887 h. In the data set with rats (pretreatment, 1996), the plasma corticosterone result is “significant dose-related decreases”. For the same molecule, the intravenous cocaine self-administration result with rats (pretreatment) is recorded as “significant dose-related decreases”. Further, in the data set on male Wistar rats (chronic administration, single drug, Met50 group (metyrapone 50 mg/kg)), the immobility time result was “showed a lessening of immobility time”. Further, the “group means of immobility compared with vehicle (tolerance)” value with male Wistar rats (chronically treated groups that received only Ox or Met) is “equal to or exceeded the vehicle”.

Values taken from US20200016134A1, “COMPOSITIONS AND METHODS FOR TREATING SUBSTANCE ABUSE DISORDERS” (EMBERA NEUROTHERAPEUTICS, INC., priority 2016, published 2020).
